According to US20250332268A1, “CONJUGATE AND COMPOSITION AS WELL AS PREPARATION METHOD THEREFOR AND USE THEREOF” (priority 2022, published 2025):
Like-named read-outs stand apart in the source and are kept apart here. Non-standard residues stand in square brackets, D forms with d. Residues, ends and D or L forms follow the SMILES beside them. *: point of attachment. {Cy5} = Cy5 fluorescent dye; Dolaproine = CO[C@@H]([C@@H]1CCCN1)[C@@H](C)C(=O)O; Dil = CC[C@H](C)[C@H](NC)[C@@H](CC(=O)O)OC; X1 = C[C@@H](N*)[C@@H](O)c1ccccc1; NMeV = CN[C@H](C(=O)O)C(C)C

How the values were obtained:
[1] = test system: U118MG glioma cells subcutaneous tumor; assay: In vivo anti-tumor activity, tumor volume (Experimental Example 3); parameters: species or system NOD-SCID mice
Method: In this experimental example, the in vivo anti-tumor activity of the resulting conjugate 20 in mice was investigated.
The mice in this experiment were purchased from SPF Co., Ltd, the germline was NOD-SCID, the grade was SPF, male, 6-8 weeks old; U118MG glioma cells were purchased from Jennio.
The above culture medium containing U118MG cells was inoculated on subcutaneous site of the right forelimb of mice, and the injection volume was 100 μL. Each mouse was inoculated with 1×10^7 U118MG glioma cells.
The above resulting conjugate AP2 was formulated into 1.94 mg/mL of solution with PBS. Conjugate 20 was formulated into 0.625 mg/mL, 1.25 mg/mL and 2.06 mg/mL of solution with PBS, respectively (all calculated based on the amount of oligonucleotide). […]
For test group 3d, the above conjugate 20 solution with a concentration of 0.625 mg/mL was administered by tail intravenous injection with a single administration volume of 10 μL/g, a single administration dosage of […] (calculated based on the mass of oligonucleotide), wherein the dosage of MMAE contained was equivalent to 0.3 mg/kg. […]
Long diameter and short diameter of the tumors were measured by in vitro measurement method. The tumor volume was calculated according to the formula ½(long diameter×short diameter^2). […]

[2] = test system: U118MG subcutaneous tumor; assay: In vivo activity of long-interval administration against U118MG subcutaneous tumor model mice (Experimental Example 7); parameters: species or system NOD-SCID mice; details: MMAE only, 0.1 mg/kg and 0.3 mg/kg subcutaneous on D8, D11, D15, D29, D32, D36
Method: According to the method of experimental example 2, 42 mice inoculated with U118MG subcutaneous tumor were obtained, and the mice were kept after injection.
MMAE was dissolved into solutions with a concentration of 0.03 mg/mL and 0.01 mg/mL with 10% DMSO+90% serum-free DMEM medium (volume ratio); conjugate 21 was dissolved into a solution with a concentration of 0.5 mg/mL and 0.165 mg/mL (calculated according to aptamer); and comparative conjugate 25 was dissolved into solutions with a concentration of 0.5 mg/mL and 0.165 mg/mL (calculated according to aptamer). […] The mice were weighed before administration, and the administration volume was calculated by weight.
For blank control group, each mouse was administered with DMEM medium with a single administration volume of 10 μL/g mouse body weight; For test group 7a, each mouse was administered with MMAE with a concentration of 0.01 mg/ml with a single administration volume of 10 μL/g mouse body weight. It was calculated that a single administration dosage was 0.1 mg/kg.
For test group 7b, each mouse was administered with conjugate 21 with a concentration of 0.165 mg/ml with a single administration volume of 10 μL/g mouse body weight. It was calculated that a single administration dosage was 1.65 mg/kg (the corresponding MMAE dosage was 0.1 mg/kg). […]

[3] = test system: U118MG orthotopic tumor (brain glioma); details: mouse, in vivo, iv, 3 mg/kg
Method: (§1) U118MG human glioma cells (purchased from Guangzhou Jennio Biotech Co., Ltd) were cultured in DMEM complete medium (MACGENE company, Cat No. CM15019) supplemented with 10% fetal bovine serum (FBS, RMBIO company) at 37° C. in an incubator containing 5% CO2/95% air.
(§2) The cells were digested with 0.25% pancreatic enzyme and collected. The supernatant was aspirated, and the cells were resuspended in DMEM medium supplemented with 10% FBS to formulate into cell culture medium with a concentration of 4×10^7 cells/mL.
(§3) Experimental animals were 6 NOD-SCID mice, male, 12 weeks old (purchased from SPF (Beijing) Biotechnology Co., LTD.). The above cell culture medium was inoculated into NOD-SCID mice. […]
(§4) The administration dosage of all animals was calculated based on their body weights, the administration volume was all 10 μL/g, the administration dosage was 3 mg/kg per animal (calculated based on the amount of aptamer), 2 mice were administrated in each group and designated as test group 4a and control group 4b, respectively. […]
(§5) 24 h after administration, one mouse in each group was respectively killed and brain tissue was taken, and the remaining mice were killed at 48 h after administration and brain tissues were taken. The brain tissues of mice were taken for fluorescence imaging in IVIS Lumina Series III.

[4] = test system: U118MG orthotopic tumor (brain glioma); assay: In vivo distribution in U118MG cell orthotopic tumor model mice, brain fluorescence imaging (Experimental Example 4); details: 24 h and 48 h after administration; 3 mg/kg tail intravenous injection
Method: as §1, §2, §3, §4, §5

[5] = test system: A549 subcutaneous tumor (human lung adenocarcinoma cells); assay: In vivo activity against A549 subcutaneous tumor model mice (Experimental Example 9); details: administered D8, D12, D15, D19 (MMAE equivalent 0.3 mg/kg) and D46, D50, D54 (0.6 mg/kg); versus 9b (MMAE) and 9e (comparative conjugate 24)
Method: According to the method of experimental example 2, 30 mice inoculated with A549 subcutaneous tumors were obtained, and the mice were kept after injection.
Conjugate 20 and conjugate 21 were dissolved into conjugate solutions with a concentration of 1 mg/mL (calculated according to aptamer) with serum-free DMEM medium. Comparative conjugate 24 were dissolved into a conjugate solution with a concentration of 0.8 mg/mL (calculated according to aptamer). MMAE was dissolved into a solution with a concentration of 0.06 mg/mL with 10% DMSO+90% serum-free DMEM medium (volume ratio).
7 days after the inoculation of A549 human lung cancer cells, all mice were grouped, with 6 mice in each group, and each mouse was administrated. The day of administration was designated as D8. The mice were weighed before administration, and the administration volume was calculated by the mouse body weight. […]
For blank control group 9a, each mouse was administered with DMEM with a single administration volume of 5 μL/g mouse body weight; For control group 9b, each mouse was administered with MMAE with a single administration volume of 5 μL/g mouse body weight. It was calculated that a single administration dosage was 0.3 mg/kg; […]
Tumor volumes were measured on D1, D9, D16, D19, D22, D26, D30, D36, D40, D43, D47, D50, D54, and D57. The blank control group was measured on D50, and then the experiment was terminated. […]

CC[C@H](C)[C@@H]([C@@H](CC(=O)N1CCC[C@H]1[C@H](OC)[C@@H](C)C(=O)N[C@H](C)[C@@H](O)c1ccccc1)OC)N(C)C(=O)[C@@H](NC(=O)[C@@H](NC)C(C)C)C(C)C [MMAE, Monomethyl auristatin E, reference compound] (H-[NMeV]V[Dil][Dolaproine]-X1)
increase rate of tumor volume ([1]; control group 3c, 0.3 mg/kg tail intravenous injection on D8, D12, D16, D20): increase rate of tumor volume was decreased
increase rates of tumor volume [2]: slightly decreased

CY5-CmUmGmGmAmGmUmUmCmAmGmAmCmGmUmGmUmUmGmCmUmCmUmUmCmCmGmAmUmCmUmCm (DNA CUGGAGUUCAGACGUGUUGCUCUUCCGAUCUC; all 2'-O-methyl, 5' {Cy5}, backbone not given here) [AP2]
fluorescence signal in brain tissue [3]: strong fluorescence signals at the inoculation tumor location
tumor volume over time ([1]; control group 3b, 15.5 mg/kg tail intravenous injection on D8, D12, D16, D20): increased rapidly

CY5-UfCfUfAUfGGCfUfGCfCfGAUfCfUfGGUfCfUfCfCfAUfGUfACfGUf (UCUAUGGCUGCCGAUCUGGUCUCCAUGUACGU; 2'-fluoro at CU, RNA at AG, 5' {Cy5}, backbone not given here) [Comparative AP19]
fluorescence signal in brain tissue [4]: no fluorescence signal at all in the brain

MMAE-CmUmGmGmAmGmUmUmCmAmGmAmCmGmUmGmUmUmGmCmUmCmUmUmCmCmGmAmUmCmUmCm (DNA CUGGAGUUCAGACGUGUUGCUCUUCCGAUCUC; all 2'-O-methyl, backbone not given here; MMAE drug conjugated at 5' end via linker, further chemistry not fully specified) [Conjugate 20, dye group of AP2 replaced with MMAE; linking group 2-(phosphate ester group-(CH2)6—S—)-MC-Val-Cit-PAB]
tumor volumes at each time period [5]: smaller than those of the control groups 9b and 9e

MMAE-CmUmGmGmAmGmUmUmCmAmGmAmCmGmUmUmGmUmGmCmUmCmUmUm (CUGGAGUUCAGACGUUGUGCUCUU; all 2'-O-methyl, backbone not given here; MMAE drug conjugated at 5' end via linker, further chemistry not fully specified) [Conjugate 21]
tumor volumes at each time period [5]: smaller than those of the control groups 9b and 9e
